Measured values as given in patent publication US9676763B2 (priority 2010, dated 2017).

These compounds were tested on VSV luc particles bearing the native VSV G glycoprotein.
Format: cell-based, vesicular stomatitis virus
For `CCOc1ccc(S(=O)(=O)N(C)c2ccc(OCC(=O)N(C)C3CCN(C)CC3)cc2)cc1` [compound 6], the “specificity for EboV GP versus VSV G particles” value was “EboV specific”.
With `Oc1ccc(/C=N/n2c(-c3ccco3)cs/c2=N\c2ccc(F)cc2F)c(O)c1` [compound 7] the “specificity for EboV GP versus VSV G particles” value was “EboV specific”.
In the case of `COC(=O)c1ccc(-c2ccco2)n1Cc1cccc(F)c1` [compound 8], the “specificity for EboV GP versus VSV G particles” value is reported as “EboV specific”.

Each compound was assayed on EboV.
With `CCCCc1oc2ccccc2c1C(=O)c1cc(I)c(OCCN(CC)CC)c(I)c1` [amiodarone] the anti-EboV activity was “weak anti-EboV activity”.
With `CCOC(=O)C1=C(COCCN)NC(C)=C(C(=O)OC)C1c1ccccc1Cl` (stereo not drawn) [amlodipne] the anti-EboV activity was “weak anti-EboV activity”.
In the case of `COc1ccc([C@@H]2Sc3ccccc3N(CCN(C)C)C(=O)[C@@H]2OC(C)=O)cc1` [diltiazen], the anti-EboV activity is reported as “weak anti-EboV activity”.
